Drawing on ChEMBL document CHEMBL3044633, “Synthesis and Insecticidal Activity of 3, 5-Dimethylbenzoyl Moiety Modified Analogues of N-tert-Butyl-N-(4-ethylbenzoyl)-3, 5-dimethylbenzohydrazide” (2002), this text covers mortality for 15 compounds.

As a reminder, the mortality is the share of the test organisms that died.

Structures are written as SMILES.

What all share (format): functional
Settings in all cases: foliar, 120 h

Assay [1] concerns Spodoptera litura. The assay can be described thus: Insecticidal activity against the Spodoptera litura larvae in compound treated cabbage leaves assessed as mortality at 200 ppm measured after 5 days by leaf dipping method.
In assay [2] the test system is Spodoptera litura. The assay can be described thus: Insecticidal activity against the Spodoptera litura larvae in compound treated cabbage leaves assessed as mortality at 12.5 ppm measured after 5 days by leaf dipping method.
Assay [3] has as its system Spodoptera litura. Put plainly: Insecticidal activity against the Spodoptera litura larvae in compound treated cabbage leaves assessed as mortality at 50 ppm measured after 5 days by leaf dipping method.
Assay [4] concerns Spodoptera litura. Put plainly: Insecticidal activity against the Spodoptera litura larvae in compound treated cabbage leaves assessed as mortality at 3.1 ppm measured after 5 days by leaf dipping method.

Consider `CCc1ccc(C(=O)NN(C(=O)c2ccc3ocnc3c2)C(C)(C)C)cc1`, for which, in the assay with Spodoptera litura [1], the mortality at 200 ppm came out at 5%. For `CCc1ccc(C(=O)NN(C(=O)c2ccc3ncoc3c2)C(C)(C)C)cc1`, the mortality at 200 ppm in the assay on Spodoptera litura [1] is 1%.

Consider `CCc1ccc(C(=O)NN(C(=O)c2cc(C)cc(C(F)F)c2)C(C)(C)C)cc1`, for which the mortality at 12.5 ppm in the assay with Spodoptera litura [2] was 8%. Also, in the assay with Spodoptera litura [3], the mortality at 50 ppm worked out at 10%. For the same compound, the mortality at 200 ppm with Spodoptera litura [1] was determined as 10%. Take `CCc1ccc(C(=O)NN(C(=O)c2ccc3c(c2)OCCO3)C(C)(C)C)cc1`: in the assay on Spodoptera litura [1], the mortality at 200 ppm came out at 0%. Turning to `C=Cc1cc(C)cc(C(=O)N(NC(=O)c2ccc(CC)cc2)C(C)(C)C)c1`, in the assay on Spodoptera litura [2], the mortality at 12.5 ppm was found to be 1%. Further, the mortality at 50 ppm in the assay on Spodoptera litura [3] turned out to be 7%. For the same compound, in the assay with Spodoptera litura [1], the mortality at 200 ppm stood at 10%.

Regarding `CCc1ccc(C(=O)NN(C(=O)c2cc(C)cc(C=O)c2)C(C)(C)C)cc1`, the mortality at 200 ppm with Spodoptera litura [1] came to 0%.

For `CCc1ccc(C(=O)NN(C(=O)c2cc(C)cc(CF)c2)C(C)(C)C)cc1`, in the assay on Spodoptera litura [2], the mortality at 12.5 ppm worked out at 5%. The mortality at 50 ppm with Spodoptera litura [3] is 10%. The mortality at 200 ppm in the assay with Spodoptera litura [1] turned out to be 10%. Consider `CCc1ccc(C(=O)NN(C(=O)c2cc(C)cc(CCl)c2)C(C)(C)C)cc1`, for which the mortality at 50 ppm with Spodoptera litura [3] is 1%. Moreover, the mortality at 200 ppm in the assay on Spodoptera litura [1] came to 7%. For the compound `CCc1ccc(C(=O)NN(C(=O)c2cc(C)cc(CO)c2)C(C)(C)C)cc1`, the mortality at 200 ppm in the assay with Spodoptera litura [1] amounted to 0%. Still for that read-out and setting: as for `CCc1ccc(C(=O)NN(C(=O)c2cc(C)cc(CO[Si](C)(C)C(C)(C)C)c2)C(C)(C)C)cc1`, the figure is 0%. With `CCc1ccc(C(=O)NN(C(=O)c2cc(C)cc(COC)c2)C(C)(C)C)cc1`, the mortality at 50 ppm with Spodoptera litura [3] worked out at 5%. Besides, in the assay on Spodoptera litura [1], the mortality at 200 ppm amounted to 9%. The matching figures for `CCc1ccc(C(=O)NNC(=O)C2CC(C)CC(C)C2)cc1` (centres undefined): 0% and 1%. For the compound `CCc1ccc(C(=O)NN(C(=O)C2C=C(C)CC(C)=C2)C(C)(C)C)cc1`, the mortality at 12.5 ppm with Spodoptera litura [2] amounted to 4%. Besides, the mortality at 50 ppm with Spodoptera litura [3] stood at 10%. In addition, the mortality at 200 ppm in the assay with Spodoptera litura [1] stood at 10%. Consider `CCCCOCc1cc(C)cc(C(=O)N(NC(=O)c2ccc(CC)cc2)C(C)(C)C)c1`, for which the mortality at 200 ppm with Spodoptera litura [1] worked out at 0%.

With `CCc1ccc(C(=O)NN(C(=O)c2cc(C)cc(C)c2)C(C)(C)C)cc1` [TEBUFENOZIDE], in the assay on Spodoptera litura [4], the mortality at 3.1 ppm was found to be 3%. Also, the mortality at 12.5 ppm in the assay on Spodoptera litura [2] was 10%. Besides, in the assay on Spodoptera litura [3], the mortality at 50 ppm was found to be 10%. The mortality at 200 ppm in the assay on Spodoptera litura [1] was 10%.
